Laboratory results published in patent US9051240B2, “Substituted 2-[2-(phenyl) ethylamino] alkaneamide derivatives and their use as sodium and/or calcium channel modulators” (Newron Pharmaceuticals S.P.A., priority 2007, dated 2015).
Like-named read-outs stand apart in the source and are kept apart here.

System: Na+ currents in ND7/23 cells (TTX-s)
Experiment: Patch clamp evaluation of Na+ currents blockade in ND7/23 cell line
Assay type: cell-based, rat
Procedure: ND7/23 (ECACC No 92090903 from SIGMA), is a hybrid cell line derived from a neonatal rat DRG fused with the mouse neuroblastoma N18Tg2 (Wood et al., Proc. Biol. Sci., 1990 September, 241(1302), 187-194).
The molecular identity of the channels responsible for the TTX-s conductance is unknown but it is presumed that TTX-s conductance arises from the activity of a mixed population of sodium channels.
Cells are routinously maintained in DMEM with 10% of FBS, 4 mM glutamine, 1 mM sodium piruvate. The day before the patch clamp experiment cells are detached and seeded at 100,000 cells/polylysine-coated 35 mm Petri dish.
Experiments on ND7/23 cells were carried out using standard whole cell patch clamp methods (Hamill et al., Pfugers Arch., 1981 August, 391(12), 85-100), as described in previous section.
To test the effect of compounds on sodium currents in ND7/23 cells, holding membrane potential was set at −90 mV, then a two step protocol was used to determine the voltage dependence of the block. Sodium currents were activated by a 30 ms step pulse to 0 mV (test pulse) from a 2000 ms preconditioning potential of −110 mV (resting condition) and a potential of ˜−70 mV (half maximal steady-state condition).
Tonic block of resting and depolarized currents at a given drug concentration was calculated as the difference between the peak Na^+ current in the control external bath solution and peak currents with the test substance divided by control peak.
Drug concentration-inhibition curves were obtained by plotting tonic blocks in the resting and depolarized condition, versus drug concentrations. Dose-response curves were fitted to the tonic block data, according to the logistic equation: y=A2+(A1−A2)/[1+(x/IC50)p]. A1 and A2 are fixed values of 0 and 1 corresponding to 0 and 100% current inhibition, x is the drug concentration, IC50 is the drug concentration resulting in 50% current inhibition and p is the corresponding slope factor.
The apparent affinity of drug for the inactivated state (Ki) was calculated according to the equation 1/Kdep=h/Kr+(1−h)/Ki where Kr is the affinity of drug for the resting/closed state; Kdep is the IC50 in the depolarized condition, h and (1−h) are the fractions of channels present at the rest. and dep. potentials, respectively.
Control bath solution contained (mM): NaCl 80, Choline HCl 40, CaCl2 1.3, MgCl2 2, KCl 2, CdCl2 0.4, NiCl2 0.3, TEACl 20, Hepes 10, Glucose 10.
Internal pipette solution consisted of (mM): CsF 65, CsCl 65, NaCl 10, CaCl2 1.3, MgCl2 2, Hepes 10, EGTA 10, MgATP 1.
Compounds were dissolved as stock solutions (20 mM) in DMSO. They were diluted to the final concentrations in the external solution.

SMILES: C[C@H](NCc1ccc(OCc2ccccc2F)cc1)C(N)=O [ralfinamide, (S)-(+)-2-[4-(2-fluorobenzyloxy)-benzylamino]-propanamide, reference compound]
- Ki (calculated from Kr and Kdep, read-out: Ki (apparent affinity for the inactivated state)): 8.3 µM
- IC50 (read-out: IC50 depolarized, preconditioning potential ~-70 mV): 15 µM
- IC50 (read-out: IC50 resting (Kr), preconditioning potential -110 mV): 149 µM
